Test results taken from patent US10183943B2, “Heterocyclic compounds and their use in preventing or treating bacterial infections” (MUTABILIS, priority 2015, dated 2019).
Where a name gives a salt, the structure may show the parent alone.

What was measured:
Assay type in all cases: cell-based
[1] = test system: E. cloacae 260508 (TEM-1, CTX-M-15); test: MIC of compounds alone, broth microdilution; details: Enterobacter cloacae, read-out: MIC compounds of the invention alone
How it was run: (§1)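 Cpd alone in DMSO; CAMHB, log-phase inoculum 5×10^5 cfu/mL; 35° C, 16-20 h, ambient air; MIC = lowest conc. with no visible growth (CLSI M7-A7).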

E. coli RGN238 (OXA-1) = test: MIC of compounds alone, broth microdilution; details: Escherichia coli; strain RGN238 (E. coli); read-out: MIC compounds of the invention alone
How it was run: as §1

[2] = test system: K. pneumoniae UFR24 (TEM-1, SHV-2, SHV-11, OXA-1, OXA-48, OXA-47); test: MIC of compounds alone, broth microdilution; details: Klebsiella pneumoniae; strain UFR24 (K. pneumoniae); read-out: MIC compounds of the invention alone
How it was run: as §1

[3] = test system: E. cloacae UFR70 (TEM-1, CTX-M-15, CMY-2, OXA-1, Porin loss); test: MIC of compounds alone, broth microdilution; details: Enterobacter cloacae, read-out: MIC compounds of the invention alone
How it was run: as §1

[4] = test system: K. pneumoniae 200047 (TEM-1, SHV-32, CTX-M-15, OXA-1); test: MIC of compounds alone, broth microdilution; details: Klebsiella pneumoniae, read-out: MIC compounds of the invention alone
How it was run: as §1

[5] = test system: E. coli UFR18 (CTX-M-15, OXA-204); test: MIC of compounds alone, broth microdilution; details: Escherichia coli; strain UFR18 (E. coli); read-out: MIC compounds of the invention alone
How it was run: as §1

[6] = test system: E. coli UFR61O (TEM-1, KPC-2); test: MIC of compounds alone, broth microdilution; details: Escherichia coli; strain UFR61O (E. coli); read-out: MIC compounds of the invention alone
How it was run: as §1

[7] = test system: E. cloacae UFR85 (TEM-1, CTX-M-15, AmpC); test: MIC of compounds alone, broth microdilution; details: Enterobacter cloacae, read-out: MIC compounds of the invention alone
How it was run: as §1

[8] = test system: E. coli UFR41 (TEM-1, CTX-M-15, CMY-2, OXA-1, NDM-4); test: MIC of ceftazidime (CAZ) in combination with compounds at 4 μg/mL, broth microdilution; details: strain UFR41; MIC of CAZ with compound fixed at 4 μg/mL
How it was run: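 Compounds were dissolved in DMSO and spotted onto plates. Log-phase cells were then added at 5×10^5 cfu/mL in cation-adjusted Mueller-Hinton broth, incubated 16-20 h at 35° C, and the MIC was scored visually as the lowest growth-inhibiting concentration.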

[9] = test system: K. pneumoniae UFR68 (TEM-1, SHV-11, CTX-M-15, KPC-3); test: MIC of compounds alone, broth microdilution; details: Klebsiella pneumoniae, read-out: MIC compounds of the invention alone
How it was run: as §1

[10] = test system: E. coli 190317 (TEM-1, SHV-12, CTX-M-15, OXA-1); test: MIC of compounds alone, broth microdilution; details: Escherichia coli, read-out: MIC compounds of the invention alone
How it was run: as §1

| Compound | MIC [1] [µg/mL] | MIC (E. coli RGN238 (OXA-1)) [µg/mL] | MIC [2] [µg/mL] | MIC [3] [µg/mL] | MIC [4] [µg/mL] | MIC [5] [µg/mL] | MIC [6] [µg/mL] | MIC [7] [µg/mL] | MIC combination of CAZ and compounds of the invention at 4 μg/mL [8] | MIC [9] [µg/mL] | MIC [10] [µg/mL] |
| --- | --- | --- | --- | --- | --- | --- | --- | --- | --- | --- | --- |
| O=C1N2CC(c3ncco3)=CC(C2)N1OS(=O)(=O)[O-].[Na+] (centres unmarked) [Example 25, Sodium [3-(oxazol-2-yl)-7-oxo-1,6-diazabicyclo[3.2.1]oct-3-en-6-yl]sulfate] | 4 | 2 | 4 | 2 | 2 | 2 | 8 | 2 | 0.25 µg/mL |  |  |
| Cn1cc(C2=CCN3CC2N(OS(=O)(=O)[O-])C3=O)cnc1=O.[Na+] (centres unmarked) [Example 15, Sodium [4-(N-methyl-2-oxo-pyrimidin-5-yl)-7-oxo-1,6-diazabicyclo[3.2.1]oct-3-en-6-yl] sulfate] |  | 16 | > 32 | 8 | > 32 | 0.5 | 8 | > 32 |  | > 32 |  |
| O=C1N2CC=C(c3cnco3)C(C2)N1OS(=O)(=O)[O-].[Na+] (centres unmarked) [Example 3, Sodium [4-(oxazol-5-yl)-7-oxo-1,6-diazabicyclo[3.2.1]oct-3-en-6-yl]sulfate] | 16 | 16 | > 32 | 8 | > 32 | 2 | 16 | > 32 | >64 µg/mL | > 32 |  |
| O=C1N2CC(c3ncco3)=C[C@H](C2)N1OS(=O)(=O)[O-].[Na+] [Example 44, Sodium [(5R)-3-(oxazol-2-yl)-7-oxo-1,6-diazabicyclo[3.2.1]oct-3-en-6-yl] sulfate] |  | 1 | 2 |  | 1 | 1 | 4 | 2 | <0.25 µg/mL | 4 |  |
| Cn1ncc(C2=CCN3CC2N(OS(=O)(=O)[O-])C3=O)cc1=O.[Na+] (centres unmarked) [Example 19, Sodium [4-(1-methyl-6-oxo-pyridazin-4-yl)-7-oxo-1,6-diazabicyclo[3.2.1]oct-3-en-6-yl] sulfate] |  | 32 | > 32 | 16 | > 32 | 4 | > 32 | > 32 | >64 µg/mL | > 32 | 2 |
| NCc1cnc(C2=CC3CN(C2)C(=O)N3OS(=O)(=O)O)s1 (centres unmarked) [Example 38, [3-[5-(aminomethyl)thiazol-2-yl]-7-oxo-1,6-diazabicyclo[3.2.1]oct-3-en-6-yl] hydrogen sulfate] | > 32 | 32 | > 32 |  | 8 | 0.5 | 2 |  | <=0.25 μg/mL |  | 1 |
